Each block holds one compound with its values, some of them ahead of it. Where a SMILES comes first, the peptide text is derived from it. [ ]: non-standard residue; d: D form. The star is where a group is joined. O(cholesteryl) = CC(C)CCC[C@@H](C)[C@H]1CC[C@H]2[C@@H]3CC=C4C[C@@H](O*)CC[C@]4(C)[C@H]3CC[C@]12C; PEG24 = NCCOCCOCCOCCOCCOCCOCCOCCOCCOCCOCCOCCOCCOCCOCCOCCOCCOCCOCCOCCOCCOCCOCCOCCOCCC(=O)O; PEG12 = NCCOCCOCCOCCOCCOCCOCCOCCOCCOCCOCCOCCOCCC(=O)O; PEG8 = NCCOCCOCCOCCOCCOCCOCCOCCOCCC(=O)O; PEG4 = NCCOCCOCCOCCOCCC(=O)O
What was measured:
[1] = test system: Human immunodeficiency virus 1; assay: Antiviral activity against HIV-1 IIIB assessed as inhibition of viral replication measured after 4 days by ELISA; type: functional, organism-based; settings: Human immunodeficiency virus 1, IIIB, 96 h
[2] = test system: Human immunodeficiency virus 1; assay: Inhibition of HIV-1 replication assessed as inhibition of gp41 six-helix bundle formation between T21 and CP32 incubated for 30 mins followed by CP32 addition measured after 30 mins by N-PAGE analysis; type: functional; settings: dose <= 120.0 µM, time 1.0 hrs, DDE = dose-dependent effect
[3] = test system: Human immunodeficiency virus 1; assay: Binding affinity to HIV1 gp41 NHR target surrogate T21 assessed as alpha-helicity at 10 uM incubated for 30 mins by CD spectroscopy (reference value: 66 %)
[4] = Cytotoxicity against human CEMx174 5.25M7 cells upto 10 uM incubated for 48 hrs by CCK-8 assay; type: toxicity, cell-based; settings: cemx174 5.25m7, 48 h
[5] = Selectivity ratio of EC50 for antiviral activity against T20-resistant HIV-1 V38A/N42T to EC50 for antiviral activity against T20-sensitive HIV-1 D36G; type: functional
[6] = test system: Human immunodeficiency virus 1; assay: Binding affinity to HIV1 gp41 NHR target surrogate T21 assessed as sedimentation coefficient incubated for 30 mins measured for 0.16 to 7 hrs by Sedimentation velocity analysis; settings: time 0.56-7.5 hrs
[7] = test system: Human immunodeficiency virus 1; assay: Binding affinity to HIV1 gp41 NHR target surrogate N36 assessed as melting temperature at 10 uM incubated for 30 mins by CD spectroscopy
[8] = test system: Human immunodeficiency virus 1; assay: Antiviral activity against T20-resistant HIV-1 V38E/N42S assessed as inhibition of viral replication measured after 4 days by ELISA; type: functional, organism-based
[9] = test system: Human immunodeficiency virus 1; assay: Antiviral activity against T20-resistant HIV-1 V38A/N42T assessed as inhibition of viral replication measured after 4 days by ELISA; type: functional, organism-based
[10] = test system: Human immunodeficiency virus 1; assay: Binding affinity to HIV1 gp41 NHR target surrogate N36 assessed as alpha-helicity at 10 uM incubated for 30 mins by CD spectroscopy (reference value: 26 %)
[11] = Selectivity ratio of EC50 for antiviral activity against T20-resistant HIV-1 V38E/N42S to EC50 for antiviral activity against T20-sensitive HIV-1 D36G; type: functional
MT2 = assay: Cytotoxicity against human MT2 cells upto 10 uM incubated for 48 hrs by CCK-8 assay; type: toxicity, cell-based; settings: mt2, 48 h
[12] = Alpha-helicity of compound in PBS buffer at pH 7.4 at 10 uM incubated for 30 mins by CD spectroscopy relative to control; type: physicochemical; settings: pH 7.4, 0.5 h
[13] = test system: Human immunodeficiency virus 1; assay: Antiviral activity against T20-sensitive HIV-1 D36G assessed as inhibition of viral replication measured after 4 days by ELISA; type: functional, organism-based
[14] = test system: Human immunodeficiency virus 1; assay: Binding affinity to HIV1 gp41 NHR target surrogate T21 assessed as melting temperature at 10 uM incubated for 30 mins by CD spectroscopy
[15] = test system: Human immunodeficiency virus 1; assay: Antiviral activity against HIV-1 IIIB (B, X4) assessed as inhibition of viral replication measured after 4 days by ELISA; type: functional, organism-based; settings: Human immunodeficiency virus 1, IIIB (B, X4), 96 h

EC50 [1]: > 500 nM
Compound: CC[C@H](C)[C@H](NC(=O)[C@H](CO)NC(=O)[C@H](CCC(=O)O)NC(=O)[C@H](CCC(=O)O)NC(=O)[C@H](CCC(N)=O)NC(C)=O)C(=O)N[C@@H](CCCCN)C(=O)N[C@@H](CCCCN)C(=O)N[C@@H](Cc1c[nH]c2ccccc12)C(=O)N[C@@H](CCC(=O)O)C(=O)N[C@@H](CCC(=O)O)C(=O)N[C@@H](Cc1c[nH]c2ccccc12)C(=O)N[C@@H](CO)C(=O)N[C@@H](CCCCN)C(=O)N[C@@H](CCCCN)C(=O)N[C@H](C(=O)N[C@@H](CCC(=O)O)C(=O)N[C@@H](CCC(=O)O)C(=O)N[C@@H](CC(C)C)C(=O)N[C@H](C(=O)N[C@@H](CCCCN)C(=O)N[C@@H](CCCCN)C(=O)N[C@@H](CO)C(=O)N[C@@H](CCC(=O)O)C(=O)N[C@@H](CCC(=O)O)C(=O)N[C@@H](CC(C)C)C(=O)N[C@H](C(=O)N[C@@H](CCCCN)C(=O)N[C@@H](CCCCN)C(=O)N[C@H](C(=O)N[C@@H](CCC(=O)O)C(=O)N[C@@H](CCC(=O)O)C(=O)N[C@@H](CCC(N)=O)C(=O)N[C@H](C(=O)N[C@@H](CCCCN)C(=O)N[C@@H](CCCCN)C(=O)N[C@@H](CS)C(=O)O[C@H]1CC[C@@]2(C)C(=CC[C@H]3[C@@H]4CC[C@H]([C@H](C)CCCC(C)C)[C@@]4(C)CC[C@@H]32)C1)[C@@H](C)CC)[C@@H](C)CC)[C@@H](C)CC)[C@@H](C)CC)[C@@H](C)CC (Ac-QEESIKKWEEWSKKIEELIKKSEELIKKIEEQIKKC-{O(cholesteryl)})

EC50 [1]: 44.4 nM
Compound: CC[C@H](C)[C@H](NC(=O)[C@H](CCC(N)=O)NC(=O)[C@H](CCC(=O)O)NC(=O)[C@H](CCC(=O)O)NC(=O)[C@@H](NC(=O)[C@H](CCCCN)NC(=O)[C@H](CCCCN)NC(=O)[C@@H](NC(=O)[C@H](CC(C)C)NC(=O)[C@H](CCC(=O)O)NC(=O)[C@H](CCC(=O)O)NC(=O)[C@H](CO)NC(=O)[C@H](CCCCN)NC(=O)[C@H](CCCCN)NC(=O)[C@@H](NC(=O)[C@H](CC(C)C)NC(=O)[C@H](CCC(=O)O)NC(=O)[C@H](CCC(=O)O)NC(=O)[C@@H](NC(=O)[C@H](CCCCN)NC(=O)[C@H](CCCCN)NC(=O)[C@H](CO)NC(=O)[C@H](Cc1c[nH]c2ccccc12)NC(=O)[C@H](CCC(=O)O)NC(=O)[C@H](CCC(=O)O)NC(=O)[C@H](Cc1c[nH]c2ccccc12)NC(=O)[C@H](CCCCN)NC(=O)[C@H](CCCCN)NC(=O)[C@@H](NC(=O)[C@H](CO)NC(=O)[C@H](CCC(=O)O)NC(=O)[C@H](CCC(=O)O)NC(=O)[C@H](CCC(N)=O)NC(C)=O)[C@@H](C)CC)[C@@H](C)CC)[C@@H](C)CC)[C@@H](C)CC)[C@@H](C)CC)C(=O)N[C@@H](CCCCN)C(=O)N[C@@H](CCCCN)C(=O)NCCOCCOCCOCCOCCC(=O)N[C@@H](CS)C(=O)O[C@H]1CC[C@@]2(C)C(=CC[C@H]3[C@@H]4CC[C@H]([C@H](C)CCCC(C)C)[C@@]4(C)CC[C@@H]32)C1 (Ac-QEESIKKWEEWSKKIEELIKKSEELIKKIEEQIKK[PEG4]C-{O(cholesteryl)})

EC50 [1]: 21.2 nM
Compound: CC[C@H](C)[C@H](NC(=O)[C@H](CCC(N)=O)NC(=O)[C@H](CCC(=O)O)NC(=O)[C@H](CCC(=O)O)NC(=O)[C@@H](NC(=O)[C@H](CCCCN)NC(=O)[C@H](CCCCN)NC(=O)[C@@H](NC(=O)[C@H](CC(C)C)NC(=O)[C@H](CCC(=O)O)NC(=O)[C@H](CCC(=O)O)NC(=O)[C@H](CO)NC(=O)[C@H](CCCCN)NC(=O)[C@H](CCCCN)NC(=O)[C@@H](NC(=O)[C@H](CC(C)C)NC(=O)[C@H](CCC(=O)O)NC(=O)[C@H](CCC(=O)O)NC(=O)[C@@H](NC(=O)[C@H](CCCCN)NC(=O)[C@H](CCCCN)NC(=O)[C@H](CO)NC(=O)[C@H](Cc1c[nH]c2ccccc12)NC(=O)[C@H](CCC(=O)O)NC(=O)[C@H](CCC(=O)O)NC(=O)[C@H](Cc1c[nH]c2ccccc12)NC(=O)[C@H](CCCCN)NC(=O)[C@H](CCCCN)NC(=O)[C@@H](NC(=O)[C@H](CO)NC(=O)[C@H](CCC(=O)O)NC(=O)[C@H](CCC(=O)O)NC(=O)[C@H](CCC(N)=O)NC(C)=O)[C@@H](C)CC)[C@@H](C)CC)[C@@H](C)CC)[C@@H](C)CC)[C@@H](C)CC)C(=O)N[C@@H](CCCCN)C(=O)N[C@@H](CCCCN)C(=O)NCCOCCOCCOCCOCCOCCOCCOCCOCCC(=O)N[C@@H](CS)C(=O)O[C@H]1CC[C@@]2(C)C(=CC[C@H]3[C@@H]4CC[C@H]([C@H](C)CCCC(C)C)[C@@]4(C)CC[C@@H]32)C1 (Ac-QEESIKKWEEWSKKIEELIKKSEELIKKIEEQIKK[PEG8]C-{O(cholesteryl)})

EC50 [1]: 5.22 nM
Compound: CC[C@H](C)[C@H](NC(=O)[C@H](CCC(N)=O)NC(=O)[C@H](CCC(=O)O)NC(=O)[C@H](CCC(=O)O)NC(=O)[C@@H](NC(=O)[C@H](CCCCN)NC(=O)[C@H](CCCCN)NC(=O)[C@@H](NC(=O)[C@H](CC(C)C)NC(=O)[C@H](CCC(=O)O)NC(=O)[C@H](CCC(=O)O)NC(=O)[C@H](CO)NC(=O)[C@H](CCCCN)NC(=O)[C@H](CCCCN)NC(=O)[C@@H](NC(=O)[C@H](CC(C)C)NC(=O)[C@H](CCC(=O)O)NC(=O)[C@H](CCC(=O)O)NC(=O)[C@@H](NC(=O)[C@H](CCCCN)NC(=O)[C@H](CCCCN)NC(=O)[C@H](CO)NC(=O)[C@H](Cc1c[nH]c2ccccc12)NC(=O)[C@H](CCC(=O)O)NC(=O)[C@H](CCC(=O)O)NC(=O)[C@H](Cc1c[nH]c2ccccc12)NC(=O)[C@H](CCCCN)NC(=O)[C@H](CCCCN)NC(=O)[C@@H](NC(=O)[C@H](CO)NC(=O)[C@H](CCC(=O)O)NC(=O)[C@H](CCC(=O)O)NC(=O)[C@H](CCC(N)=O)NC(C)=O)[C@@H](C)CC)[C@@H](C)CC)[C@@H](C)CC)[C@@H](C)CC)[C@@H](C)CC)C(=O)N[C@@H](CCCCN)C(=O)N[C@@H](CCCCN)C(=O)NCCOCCOCCOCCOCCOCCOCCOCCOCCOCCOCCOCCOCCC(=O)N[C@@H](CS)C(=O)O[C@H]1CC[C@@]2(C)C(=CC[C@H]3[C@@H]4CC[C@H]([C@H](C)CCCC(C)C)[C@@]4(C)CC[C@@H]32)C1 (Ac-QEESIKKWEEWSKKIEELIKKSEELIKKIEEQIKK[PEG12]C-{O(cholesteryl)})

Compound: CC[C@H](C)[C@H](NC(=O)[C@H](CCC(N)=O)NC(=O)[C@H](CCC(=O)O)NC(=O)[C@H](CCC(=O)O)NC(=O)[C@@H](NC(=O)[C@H](CCCCN)NC(=O)[C@H](CCCCN)NC(=O)[C@@H](NC(=O)[C@H](CC(C)C)NC(=O)[C@H](CCC(=O)O)NC(=O)[C@H](CCC(=O)O)NC(=O)[C@H](CO)NC(=O)[C@H](CCCCN)NC(=O)[C@H](CCCCN)NC(=O)[C@@H](NC(=O)[C@H](CC(C)C)NC(=O)[C@H](CCC(=O)O)NC(=O)[C@H](CCC(=O)O)NC(=O)[C@@H](NC(=O)[C@H](CCCCN)NC(=O)[C@H](CCCCN)NC(=O)[C@H](CO)NC(=O)[C@H](Cc1c[nH]c2ccccc12)NC(=O)[C@H](CCC(=O)O)NC(=O)[C@H](CCC(=O)O)NC(=O)[C@H](Cc1c[nH]c2ccccc12)NC(=O)[C@H](CCCCN)NC(=O)[C@H](CCCCN)NC(=O)[C@@H](NC(=O)[C@H](CO)NC(=O)[C@H](CCC(=O)O)NC(=O)[C@H](CCC(=O)O)NC(=O)[C@H](CCC(N)=O)NC(C)=O)[C@@H](C)CC)[C@@H](C)CC)[C@@H](C)CC)[C@@H](C)CC)[C@@H](C)CC)C(=O)N[C@@H](CCCCN)C(=O)N[C@@H](CCCCN)C(=O)NCCOCCOCCOCCOCCOCCOCCOCCOCCOCCOCCOCCOCCOCCOCCOCCOCCOCCOCCOCCOCCOCCOCCOCCOCCC(=O)N[C@@H](CS)C(=O)O[C@H]1CC[C@@]2(C)C(=CC[C@H]3[C@@H]4CC[C@H]([C@H](C)CCCC(C)C)[C@@]4(C)CC[C@@H]32)C1 (Ac-QEESIKKWEEWSKKIEELIKKSEELIKKIEEQIKK[PEG24]C-{O(cholesteryl)})
inhibition [2]: Dde
Activity [3]: 94%
Activity [4]: Non-Toxic
Ratio EC50 [5]: 1.5
S20,w [6]: 2.43 S
Tm [7]: 50 °C
EC50 [8]: 5.07 nM
EC50 [9]: 2.38 nM
Activity [10]: 81%
EC50 [1]: 5.21 nM
Ratio EC50 [11]: 3.1
Activity (MT2): Non-Toxic
Activity [12]: 56%
EC50 [13]: 1.62 nM
Tm [14]: 68 °C

EC50 [15]: 65.7 nM
Compound: Ac-QEENIKKWEEWDKKIEELIKKSEELIKKIEEQIKK-NH2
